Assay results: patent publication US10617734B2, “STAT3 and ERK signal pathway inhibitor comprising mogrosides and analogs thereof” (BEIJING UNIVERSITY OF AGRICULTURE, priority 2014, dated 2020)

Key:
[1] = test system: cycle regulatory protein P21; assay: Western Blotting of P21 in A875 cells; format: cell-based; settings: human melanoma A875 cells, 10 μmol/L, 24 h
Method: (§1) The STAT3 and ERK signal pathways can regulate cyclins and apoptosis genes, and in order to verify the effects of […] and mogrol, the expression status of downstream genes of STAT3 and ERK was detected, wherein the influences of the three mogrosides and analogs thereof, i.e. Mogrol I E1, Mogrol II A2 and mogrol, on Bcl-2 and P21 proteins in the histiocytic lymphoma U937 cells, human melanoma A875 cells and leukemia cells K562 were determined, respectively.
(§2) The regulation of Bcl-2 and P21 proteins by mogrosides and analog thereof to the was detected by Western Blotting, specifically: histiocytic lymphoma U937 cells, human melanoma A875 cells and leukemia cells K562 (1×10^6 cells/well) were inoculated into a 6-well culture plate overnight, and 0 and 10 μmol/L of the mogrosides and analogs thereof were added respectively, and kept cultured for 24 h. […]
(§3) The protein concentration was measured with bovine serum albumin (BSA) as the standard. 50 μg of the total proteins were separated by polyacrylamide gel electrophoresis with 12% SDS, and electrophoretically transferred to a PVDF membrane (polyvinylidene fluoride membrane), and blocked for 1 h by 5% of skim milk (containing 0.1% of Tween 20), and then antibodies P21, Bcl-2 and β-actin were added, wherein the primary antibody was incubated at 4° C. overnight (β-actin was used as reference loading amount); the membrane was washed for 3 times with TBS-T, 5 min each time; secondary antibody marked by horseradish peroxidase (HRP) was added for incubation at room temperature for 1 h, the membrane was washed with rinse solution (TBS-T) for 3 times, 10 min each time, and then ECL was added for incubation in dark for 5 min, and subsequently, a fluorescence imaging analyzer was used for image development and scanning analysis.

[2] = test system: human melanoma A875 cells; assay: Cell apoptosis, Annexin V-FITC/PI, flow cytometer; format: cell-based; settings: for cell apoptosis: 10 μmol/L, 24 h
Method: Mogroside I E1, Mogroside II A2 and mogrol) for 24 h, cells were collected and washed twice with 200 μl of cold PBS, and then the cells were collected again; 100 μl of binding buffer was added for re-suspending the cells, and after the addition of 2 μl of Annexin V-FITC and well mixing, the resulting mixture was placed in dark at room temperature for 10 min, and then 5 μl of propidium iodide (PI) was added and then well mixed; the mixture was placed in dark at room temperature for 10 min, and detected by flow cytometer, and the results are shown in FIGS. 13-15.

[3] = test system: cycle regulatory protein P21; assay: Western Blotting of P21 in U937 cells; format: cell-based; settings: 10 μmol/L, 24 h
Method: as §1, §2, §3

[4] = test system: human melanoma A875 cells; assay: Cell cycle distribution, PI staining, flow cytometer; format: cell-based; settings: human melanoma A875 cells, 10 μmol/L, 24 h
Text: (§4) The influences of Mogroside I E1, Mogroside II A2 and mogrol on the cell cycle distribution of the histiocytic lymphoma U937 cells, the human melanoma A875 cells and the leukemia cells K562.
(§5) The cell cycle arrest achieved by drugs is an important approach to the inhibition of cancer cell proliferation.

[5] = test system: histiocytic lymphoma U937 cells; assay: as above; format: cell-based; settings: 24 h; for proportion of cells in G0/G1 phase with the rise of the concentration: U937 cells, 0, 1, 10, 150 and 250 μmol/L; for cell cycle distribution (proportion of cells of G0/G1 phase): U937 cells, 10 μmol/L
Text: as §4, §5

leukemia cells K562 [6] = assay: Cell morphology, Hoechst 33258 staining, fluorescence microscope; format: cell-based, human; settings: leukemia cells K562, 10, 100 and 250 μmol/L, 24-hour culture
Method: (§6) Lymphoma U937 cells, human melanoma A875 cells and leukemia cells K562 in logarithmic growth phase were selected, and the concentrations of the cells were adjusted to 1×10^4 cells/mL, and the cells were transferred to a 6-well plate for culture, and after the 24-hour culture, drugs were added to achieve final concentrations of 0, 10, 100 and 250 μmol/L, wherein only whole medium was added to the negative control groups, while Mogroside II A2 was added to the positive control groups, after 24-hour culture, waste solution was removed, and fixing solution was added to each well for fixing for 25 min, and then the resulting mixture was washed twice, 3 min each time, and then Hoechst 33258 staining solution was added for staining in dark at room temperature for 30 min, and the cell morphology variation was observed using a fluorescence microscope.

[7] = test system: anti-apoptotic protein Bcl-2; assay: Western Blotting of Bcl-2 in A875 cells; format: cell-based; settings: human melanoma A875 cells, 10 μmol/L, 24 h
Method: as §1, §2, §3

[8] = test system: anti-apoptotic protein Bcl-2; assay: Western Blotting of Bcl-2 in K562 cells; format: cell-based, human; settings: leukemia cells K562, 10 μmol/L, 24 h
Method: as §1, §2, §3

lymphoma U937 cells [9] = assay: Cell apoptosis, Annexin V-FITC/PI, flow cytometer; format: cell-based; settings: 10 μmol/L, 24 h
Method: (§7) Lymphoma U937 cells, human melanoma A875 cells and leukemia cells K562 in logarithmic growth phase were selected, and after the respective culture with 0 and 10 μmol/L of the mogrosides and analogs thereof (i.e. Mogroside I E1, Mogroside II A2 and mogrol) for 24 h, cells were collected and washed twice with 200 μl of cold PBS, and then the cells were collected again; 100 μl of binding buffer was added for re-suspending the cells, and after the addition of 2 μl of Annexin V-FITC and well mixing, the resulting mixture was placed in dark at room temperature for 10 min, and then 5 μl of propidium iodide (PI) was added and then well mixed; the mixture was placed in dark at room temperature for 10 min, and detected by flow cytometer, and the results are shown in FIGS. 13-15.

[10] = test system: cycle regulatory protein P21; assay: Western Blotting of P21 in K562 cells; format: cell-based, human; settings: leukemia cells K562, 10 μmol/L, 24 h
Method: as §1, §2, §3

leukemia cells K562 [11] = assay: Cell apoptosis, Annexin V-FITC/PI, flow cytometer; format: cell-based, human; settings: leukemia cells K562, 10 μmol/L, 24 h
Method: as §7

[12] = test system: anti-apoptotic protein Bcl-2; assay: Western Blotting of Bcl-2 in U937 cells; format: cell-based; settings: 10 μmol/L, 24 h
Method: as §1, §2, §3

leukemia cells K562 [13] = assay: Cell cycle distribution, PI staining, flow cytometer; format: cell-based, human; settings: leukemia cells K562, 10 μmol/L, 24 h
Text: as §4, §5

[14] = test system: human melanoma A875 cells; assay: Cell morphology, Hoechst 33258 staining, fluorescence microscope; format: cell-based; settings: A875 melanoma cells, 10, 100 and 250 μmol/L, 24-hour culture
Method: as §6

lymphoma U937 cells [15] = assay: as above; format: cell-based; settings: lymphoma U937 cells, 10, 100 and 250 μmol/L, 24-hour culture
Method: as §6

[16] = test system: prostate cancer cells, renal carcinoma cells, head and neck squamous cell carcinoma cells, lung cancer cells, ovarian cancer cells, breast cancer cells …; assay: Tests of examples 3 to 8 on further cancer cells; format: cell-based; settings: pancreatic, liver and colon cancer cells
[17] = test system: lymphoma U937 cells, human melanoma A875 cells and leukemia cells K562; assay: Tests of examples 3 to 8 taken together; format: cell-based; settings: Western Blotting, cell cycle, apoptosis, Hoechst, MTT

Row | Molecule | expression of cycle regulatory protein P21 [1] | cell apoptosis [2] | expression of cycle regulatory protein P21 [3] | cell cycle distribution (proportion of cells in the G0/G1 phase) [4] | proportion of cells in G0/G1 phase with the rise of the concentration [5] | cell cycle distribution (proportion of cells of G0/G1 phase) [5] | cell morphology variation (Hoechst 33258) (leukemia cells K562 [6]) | expression of anti-apoptotic protein Bcl-2 [7] | expression of anti-apoptotic protein Bcl-2 [8] | cell apoptosis (lymphoma U937 cells [9]) | expression of cycle regulatory protein P21 [10] | cell apoptosis (leukemia cells K562 [11]) | expression of anti-apoptotic protein Bcl-2 [12] | cell cycle distribution (cell cycle arrest) (leukemia cells K562 [13]) | cell morphology variation (Hoechst 33258) [14] | cell morphology variation (Hoechst 33258) (lymphoma U937 cells [15]) | amount for cell apoptosis with the rise of the concentration ([2]; different concentrations (FIG. 16)) | results of the tests of examples 3 to 8 on further cancer cells [16] | results of the tests of examples 3 to 8 [17]
1 | C[C@H](CC[C@@H](O)C(C)(C)O)[C@H]1CC[C@@]2(C)[C@H]3CC=C4[C@@H](CC[C@H](O[C@@H]5O[C@H](CO)[C@@H](O)[C@H](O)[C@H]5O)C4(C)C)[C@]3(C)C(O)C[C@]12C (some centres unmarked) [Mogroside I E1] | significantly up-regulated | induce the apoptosis | significantly up-regulated | G0/G1 arrest | gradually increased | G0/G1 arrest | identical to the results of Mogroside II A2 | significantly down-regulated | significantly down-regulated | induce the apoptosis | significantly up-regulated | induce the apoptosis | significantly down-regulated | arrested | identical to the results of Mogroside II A2 | identical to the results of Mogroside II A2 | – | – | –
2 | C[C@H](CC[C@@H](O)C(C)(C)O)[C@H]1CC[C@@]2(C)[C@H]3CC=C4[C@@H](CC[C@H](O[C@@H]5O[C@H](CO[C@@H]6O[C@H](CO)[C@@H](O)[C@H](O)[C@H]6O)[C@@H](O)[C@H](O)[C@H]5O)C4(C)C)[C@]3(C)[C@H](O)C[C@]12C [Mogroside II A2] | significantly up-regulated | induce the apoptosis | significantly up-regulated | G0/G1 arrest | gradually increased | G0/G1 arrest | identical to the results of the human melanoma A875 cells | significantly down-regulated | significantly down-regulated | induce the apoptosis | significantly up-regulated | induce the apoptosis | significantly down-regulated | arrested | typical variation of cell apoptosis | identical to the results of the human melanoma A875 cells | the amount for cell apoptosis increases | – | –
3 | C[C@H](CC[C@@H](O[C@@H]1O[C@H](CO[C@@H]2O[C@H](CO)[C@@H](O)[C@H](O)[C@H]2O)[C@@H](O)[C@H](O)[C@H]1O[C@@H]1O[C@H](CO)[C@@H](O)[C@H](O)[C@H]1O)C(C)(C)O)[C@H]1CC[C@@]2(C)[C@H]3CC=C4[C@H](CC[C@H](O[C@@H]5O[C@H](CO[C@@H]6O[C@H](CO)[C@@H](O)[C@H](O)[C@H]6O)[C@@H](O)[C@H](O)[C@H]5O[C@@H]5O[C@H](CO)[C@@H](O)[C@H](O)[C@H]5O)C4(C)C)[C@]3(C)[C@H](O)C[C@]12C [Mogroside VI] | – | – | – | – | – | – | – | – | – | – | – | – | – | – | – | – | – | identical to the results of the lymphoma U937 cells | identical to those of Mogrol I E1 and Mogrol II A2
4 | C[C@H](CC[C@@H](O[C@@H]1O[C@H](CO[C@@H]2O[C@H](CO)[C@@H](O)[C@H](O)[C@H]2O)[C@@H](O)[C@H](O)[C@H]1O[C@@H]1O[C@H](CO)[C@@H](O)[C@H](O)[C@H]1O)C(C)(C)O)[C@H]1CC[C@@]2(C)[C@@H]3CC=C4[C@@H](CC[C@H](O[C@@H]5O[C@H](CO[C@@H]6O[C@H](CO)[C@@H](O)[C@H](O)[C@H]6O)[C@@H](O)[C@H](O)[C@H]5O)C4(C)C)[C@]3(C)[C@H](O)C[C@]12C [Mogroside V] | – | – | – | – | – | – | – | – | – | – | – | – | – | – | – | – | – | identical to the results of the lymphoma U937 cells | identical to those of Mogrol I E1 and Mogrol II A2
5 | Mogrol III | – | – | – | – | – | – | – | – | – | – | – | – | – | – | – | – | – | identical to the results of the lymphoma U937 cells | identical to those of Mogrol I E1 and Mogrol II A2
6 | Mogrol IV | – | – | – | – | – | – | – | – | – | – | – | – | – | – | – | – | – | identical to the results of the lymphoma U937 cells | identical to those of Mogrol I E1 and Mogrol II A2
